In patent publication US20250243218A1, “NOVEL CARBAMATE COMPOUND AND USE THEREOF” (CHENGDU SHIBEIKANG BIOMEDICAL TECHNOLOGY CO., LTD., priority 2022, published 2025):

Key:
[1] = test system: ADP-induced platelet aggregation in rats; assay: Antiplatelet aggregation effect: ADP-induced platelet aggregation in PRP of rats after iv administration; assay type: in vivo; details: single iv at the same molar dose, blood 3 h after administration, ADP final 20 μM
Source text: 1. Test objective: Evaluation and comparison of the antiplatelet aggregation treatment effect of each compound after administration at the same molar amount
70 rats were randomly and evenly grouped into 7 groups, i.e., solvent control group, comparative example 1 (2-Oxo-clopidogrel) group, comparative example 2 (Vicagrel) group, compound 1 group, compound 2 group, compound 7 group and compound 8 group.
Rats were anesthetized by intraperitoneal injection of 1.5% sodium pentobarbital.
The anesthetized animals were transferred to an operating platform.
The rats were injected with anesthetic, and fixed on the operating platform in a supine position after the whole body of the rat became soft. After routine disinfection, the abdomen of the rat was incised along the abdominal midline using surgical scissors to open the abdominal cavity. The adipose tissue around the blood vessels was gently separated with a small forceps, and the excess adipose tissue covering the blood vessels was then wiped and removed with the cotton ball to make the blood vessels clearly visible (the abdominal aorta is located anterior to the vertebral column, and the abdominal vein appears thicker and darker in color than the abdominal aorta). The blood vessel was first fixed to prevent it from moving as much as possible. The left thumb and index finger fixed the adipose tissue and other organs on both sides of the blood vessel, while the ring finger pressed on the blood vessel at the upper end of the needle insertion point to lower the blood pressure, which can prevent blood spurting. The puncture needle was held with the right hand, with the bevel of the needle tip facing downward. The needle was inserted at an angle of about 30 degrees and advanced towards the heart to a suitable depth of about 5 mm. Once the blood had started to enter the needle via its tip, the other end of the blood collection needle was inserted into the vacuum tube. After the insertion of needle, the needle tip could be clamped with a hemostatic clip to prevent it from puncturing the blood vessel if the rat struggled due to insufficient anesthesia.
Three hours after the administration, the rats were anesthetized with sodium pentobarbital. Then blood was collected from the abdominal aorta, added with 3.8% sodium citrate (1:9) as an anticoagulant, mixed evenly and centrifuged at 200 g for 10 min. The supernatant was harvested to obtain the platelet-rich plasma (PRP), and the residual plasma was then centrifuged at 1600 g for 15 min to obtain the resulting supernatant as platelet-poor plasma (PPP).
Platelet aggregation rate was measured using a platelet aggregometer (model: Agg RAM, Helena, USA). The PPPs corresponding to the PRPs to be tested in each channel were first used to correct the light transmission, and the PPPs were removed after the correction. A cuvette added with 225 μl of PRP to be tested was then placed in each channel, and added with a stirrer, then ADP (with a final concentration of 20 μM). The platelet aggregometer immediately began to measure the platelet aggregation rate.

hERG potassium channel = biological target: T1, hERG potassium channel (Homo sapiens, UniProt Q12809); assay: cell-based; details: manual patch-clamp, stably overexpressed hERG channel; read-out: IC50 (μM), inhibition of cardiac hERG potassium channel
T1 construct: expressed in transfected cells
T1 sequence (Q12809 whole entry): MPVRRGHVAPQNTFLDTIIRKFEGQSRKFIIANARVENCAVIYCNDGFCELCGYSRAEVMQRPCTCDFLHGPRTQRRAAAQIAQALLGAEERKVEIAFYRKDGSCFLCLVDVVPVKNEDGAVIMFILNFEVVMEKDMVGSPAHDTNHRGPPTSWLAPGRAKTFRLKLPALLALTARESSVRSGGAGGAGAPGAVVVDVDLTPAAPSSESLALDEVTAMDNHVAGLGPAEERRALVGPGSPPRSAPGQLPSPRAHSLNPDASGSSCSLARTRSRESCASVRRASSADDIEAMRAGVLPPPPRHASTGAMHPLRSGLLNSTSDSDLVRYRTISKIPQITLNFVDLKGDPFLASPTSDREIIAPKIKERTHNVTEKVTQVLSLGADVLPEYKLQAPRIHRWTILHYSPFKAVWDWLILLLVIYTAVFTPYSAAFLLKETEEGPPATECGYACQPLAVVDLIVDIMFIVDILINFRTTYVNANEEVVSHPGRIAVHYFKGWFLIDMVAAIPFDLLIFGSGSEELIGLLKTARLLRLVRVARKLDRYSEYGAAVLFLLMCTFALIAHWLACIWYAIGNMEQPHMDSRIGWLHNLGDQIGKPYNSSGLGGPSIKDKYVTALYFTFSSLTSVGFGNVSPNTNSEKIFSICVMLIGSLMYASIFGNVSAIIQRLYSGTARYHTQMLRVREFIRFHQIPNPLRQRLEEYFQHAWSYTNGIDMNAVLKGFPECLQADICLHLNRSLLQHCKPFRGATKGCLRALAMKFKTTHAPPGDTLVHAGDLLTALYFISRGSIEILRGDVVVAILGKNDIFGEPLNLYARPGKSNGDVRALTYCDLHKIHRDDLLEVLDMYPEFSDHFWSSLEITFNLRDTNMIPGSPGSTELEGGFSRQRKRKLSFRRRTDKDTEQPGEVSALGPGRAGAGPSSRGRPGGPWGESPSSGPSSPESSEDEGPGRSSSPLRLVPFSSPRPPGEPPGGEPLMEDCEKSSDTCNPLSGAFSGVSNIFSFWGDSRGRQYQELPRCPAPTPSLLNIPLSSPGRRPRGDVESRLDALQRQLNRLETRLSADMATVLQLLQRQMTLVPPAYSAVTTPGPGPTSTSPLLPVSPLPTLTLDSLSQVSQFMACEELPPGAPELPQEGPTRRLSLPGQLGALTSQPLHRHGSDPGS
Source text: Test Example 2: Effect of Compounds on Current in Stably Overexpressed hERG Channel

[2] = Pharmacokinetic study in SD rats, 2-Oxo-clopidogrel in plasma by LC/MS/MS; assay type: in vivo; details: 2-Oxo-clopidogrel in plasma, SD rats, single dose at same molar amount (Table 3: iv.; text: gavage), n = 6, mean ± SD
Source text: After being administered via single gavage at the same molar amount, the pharmacokinetic characteristics of each compound were investigated, and the main pharmacokinetic parameters were compared.
Each test compound was accurately weighed separately into a clean drug container, dissolved with appropriate amount of Solutol, shaken by vortex, added with purified water, ultrasonicated, and shaken by vortex until the compound was completely dissolved. All the formulations were freshly prepared on the day of administration.
Thirty healthy adult SD rats were administered via gavage.
Grouping and Fasting: SD rats were randomly grouped, with 6 rats per group, and administered with the corresponding compounds via gavage according to Table 3.
Sample Collection and Processing: 0.2 ml of blood was collected at different time points of before (0 h) and 5 min, 15 min, 30 min, 1 h, 2 h, 4 h, 8 h, and 24 h after the administration. After the anticoagulation with EDTA-K2 was completed, the blood was centrifuged at 4° C. for 5 min, and then the plasma was separated and stored at −80° C. for later measurement.
Measurement: The blood drug concentration of 2-Oxo-clopidogrel in all PK plasma samples was measured by LC/MS/MS method, and the pharmacokinetic parameters of individual compounds were calculated by using software WinNonlin 7.2.

rabbit blood cells = assay: In vitro hemolysis test; assay type: cell-based; details: compound 2 injection, 2% red blood cell suspension
Description: One Adult Big White-Eared Rabbit (Male)
(1) After the rabbit was anesthetized by injection of sodium pentobarbital via the marginal ear vein at about 30 mg/kg, about 20 ml of blood was collected from the heart into an appropriate container.
(2) A stirrer (or glass bead) was placed in the container, the blood was stirred at a slow speed for a few minutes to remove the fibrinogen in the blood so as to obtain defibrinated blood.
(3) About 10 times the amount of physiological saline was added, mixed evenly by shaking and aliquoted into centrifuge tubes. The tubes were centrifuged at 1000 to 2000 rpm for 15 min (the rotational speed and time for centrifugation could be adjusted according to the post-centrifugation situation due to the difference of centrifuge tubes in size), and then the supernatants were removed.
(5) The obtained red blood cells were prepared into a 2% suspension with physiological saline.

[3] = test system: ear marginal vein of the rabbit; assay: Vascular irritation assay; assay type: in vivo
Description: Four Japanese Big-Ear White Rabbit (about 2 kg), 2♀/2♂ (2 Female/2 Male)
The intra-individual left/right comparison method was used. The compound 2 low dose injection and compound 2 high dose injection groups were set, with 2 rabbits in each group, half male and half female. The compound 2 injections were administered by injection into the ear marginal veins of right ears of the rabbits in the compound 2 low and high dose groups, with administration doses of 2.5 mg/kg and 7.5 mg/kg, respectively, and with the same administration volume of 5 ml/kg; and the corresponding administration concentrations were 0.5 mg/ml and 1.5 mg/ml, respectively. The same administration volume of sodium chloride injection as the negative control was administered by injection into the ear marginal veins of left ears of the rabbits in the compound 2 low and high dose groups. The administration was carried out by intravenous infusion for 30 min. […] The administration was performed once daily for a total of 7 consecutive days.
At 72 h and at the end of a 14-day recovery period after the final administration, half of the animals in each group […] were sacrificed, respectively. Marginal ear tissue samples were cut from the injection site and the proximal end of the marginal ear vein respectively and collected. The injection sites were observed by naked eyes for the response conditions to irritation. The obtained tissues were fixed with 10% neutral formalin and conventionally sectioned for histopathological examination.

Solubility study = assay type: physicochemical; details: 25° C. to 30° C.
Description: Samples of the example compound 2 and comparative example 2 (Vicagrel) were accurately weighed. Under the condition of 25° C. to 30° C., 1 ml of physiological saline and 1 ml of a buffer (pH 1.2) were taken, and added with 10 mg of each compound, respectively. The compound 2 of the present disclosure had excellent solubility, which can satisfy the demand for the formulation into an injection with an effective concentration in clinical, while the solubility of the comparative example 2 was extremely low and it cannot satisfy the demand for injection, and the addition of additional solubilizer may pose potential safety risks.

[4] = Influencing factor test (high temperature, high humidity, light); assay type: physicochemical
Description: Test Methods: The samples of the compound 2 and comparative example 2 (Vicagrel) were weighed and placed in weighing bottles, respectively, and the weighing bottles were placed under the conditions of high temperature (60° C.), high humidity (RH 80%), and light (5000 Lux), respectively.

In the case of `COC(=O)[C@H](c1ccccc1Cl)N1CCc2sc(OC(=O)N3CCN(C)CC3)cc2C1.O=C(O)/C=C/C(=O)O` [Compound 2, (S)-5-(1-(2-chlorophenyl)-2-methoxy-2-oxyethyl)-4,5,6,7-tetrahydrothieno[3,2-c]pyridin-2-yl 4-methylpiperazine-1-carboxylate fumarate], the “Platelet aggregation rate (%)” value ([1]; solvent control 76.06 ± 3.29) was 21.18 ± 8.51 %, the “Platelet aggregation rate (%)” value ([1]; solvent control 76.06 ± 3.29, listed as compound 2) was 21.18±8.51% and the IC50 (hERG potassium channel) was 18.6 µM. For the same molecule, the “AUC0-last (h*ng/ml)” value [2] was 110.15 ± 32.62** h*ng/ml, the “Cmax” value [2] was 76.82 ± 21.69 ng/mL and the “T1/2” value [2] was 1.98 ± 0.25 h. For the same molecule, the “Tmax” value [2] was 0.45 ± 0.13 h, the “hemolysis of rabbit blood cells” value (rabbit blood cells; high concentration 2.5 mg/ml) was “neither the compound 2 injection at low concentration (0.5 mg/ml) nor the compound 2 injection at high concentration (2.5 mg/ml) caused hemolysis” and the “hemolysis of rabbit blood cells” value (rabbit blood cells; low concentration 0.5 mg/ml) was “neither the compound 2 injection at low concentration (0.5 mg/ml) nor the compound 2 injection at high concentration (2.5 mg/ml) caused hemolysis”. For the same molecule, the “vascular irritation effect on the ear marginal vein of the rabbit (overall determination)” value ([3]; high concentration 1.5 mg/ml) was “no vascular irritation effect”, the “observation of ear marginal vein on the administered side at day 2 of the recovery period” value ([3]; high concentration 1.5 mg/ml, naked eyes) was “congestion of the ear marginal vein on the administered side was observed by naked eyes” and the “vascular irritation effect on the ear marginal vein of the rabbit (overall)” value ([3]; low concentration 0.5 mg/ml, observed by naked eyes) was “no vascular irritation effect”. For the same molecule, the “Solubility, pH 1.2 buffer” value (Solubility study; 10 mg compound added to 1 ml buffer (pH 1.2)) was >10 mg, the “Solubility, Physiological saline(1 ml)” value (Solubility study; 10 mg compound added to 1 ml physiological saline) was >10 mg and the “change in content, appearance and shape” value ([4]; 10 days under each of high temperature, high humidity and light) was “little change in content and no obvious change in appearance and shape”. For the same molecule, the “content, Day 0” value ([4]; Day 0) was 98.39%, the “content, High humidity (Day 10)” value ([4]; high humidity (RH 80%), 10 days) was 97.83% and the “content, High temperature (Day 10)” value ([4]; high temperature (60° C.), 10 days) was 97.84%. The “content, Light (Day 10)” value ([4]; light (5000 Lux), 10 days) was 96.09%.
